Each compound was assayed against recombinant His-tag Wip1(2-420) protein (amino acids #2-420) (Homo sapiens (Human), UniProt O15297) (assay: Wip1(2-420) phosphatase enzyme FDP assay). Conditions: fluorescein diphosphate (FDP) substrate, RT 2 hours, fluorescence Ex485/Em535; read-out: WIP1 (Truncated 2-420) FDP Assay: IC50.
Format: biochemical

Sequence of recombinant His-tag Wip1(2-420) protein (amino acids #2-420) (O15297 2-420): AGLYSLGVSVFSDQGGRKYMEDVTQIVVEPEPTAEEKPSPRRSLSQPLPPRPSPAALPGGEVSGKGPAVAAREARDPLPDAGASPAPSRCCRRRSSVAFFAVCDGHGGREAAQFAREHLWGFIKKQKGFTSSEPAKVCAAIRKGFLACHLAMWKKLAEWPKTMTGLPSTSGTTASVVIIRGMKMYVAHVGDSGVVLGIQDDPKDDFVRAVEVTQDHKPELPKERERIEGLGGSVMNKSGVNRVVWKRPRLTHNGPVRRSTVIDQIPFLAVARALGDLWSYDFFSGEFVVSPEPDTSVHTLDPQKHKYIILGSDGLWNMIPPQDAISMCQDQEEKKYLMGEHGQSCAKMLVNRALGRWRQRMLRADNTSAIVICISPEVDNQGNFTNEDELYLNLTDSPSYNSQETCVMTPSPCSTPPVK

| IC50 | Compound |
| --- | --- |
| 13 nM | COC[C@H](Nc1cc(Cl)cnc1C)c1ccc(C(=O)N[C@@H](CC2CCCC2)C(=O)NC2CC2)s1 [Compound 159, (2S)-2-({5-[(1S)-1-[(5-chloro-2-methylpyridin-3-yl)amino]-2-methoxyethyl]thiophen-2-yl}formamido)-3-cyclopentyl-N-cyclopropylpropanamide] |
| 11 nM | Cc1ncc(Cl)cc1N[C@@H](C)c1ccc(C(=O)N[C@@H](CCC(C)(C)C)C(=O)NC2CC2)s1 [Compound 161, (2S)-2-({5-[(1S)-1-[(5-chloro-2-methylpyridin-3-yl)amino]ethyl]thiophen-2-yl}formamido)-N-cyclopropyl-5,5-dimethylhexanamide] |
| 378 nM | Cc1ncc(Cl)cc1N[C@H](Cn1cccn1)c1ccc(C(=O)N[C@@H](CC2CCCC2)C(=O)NC2CC2)s1 [Compound 165, (2S)-2-({5-[(1R)-1-[(5-chloro-2-methylpyridin-3-yl)amino]-2-(1H-pyrazol-1-yl)ethyl]thiophen-2-yl}formamido)-3-cyclopentyl-N-cyclopropylpropanamide] |
| 7 nM | Cc1ncc(Cl)cc1N[C@@H](Cn1cccn1)c1ccc(C(=O)N[C@@H](CC2CCCC2)C(=O)NC2CC2)s1 [Compound 166, (2S)-2-({5-[(1S)-1-[(5-chloro-2-methylpyridin-3-yl)amino]-2-(1H-pyrazol-1-yl)ethyl]thiophen-2-yl}formamido)-3-cyclopentyl-N-cyclopropylpropanamide] |
| 11 nM | Cc1ncc(Cl)cc1N[C@@H](C)c1ccc(C(=O)N[C@@H](CC2CCCC2)C(=O)Nc2ccc3c(c2)N(C)CCC3)s1 [Compound 167, (2S)-2-({5-[(1S)-1-[(5-chloro-2-methylpyridin-3-yl)amino]ethyl]thiophen-2-yl}formamido)-3-cyclopentyl-N-(1-methyl-1,2,3,4-tetrahydroquinolin-7-yl)propanamide] |
| 9 nM | Cc1ncc(Cl)cc1N[C@@H](C)c1ccc(C(=O)N[C@@H](CC2CCCC2)C(=O)NC2CCc3ncccc3C2)s1 (stereo partly drawn) [Compound 169, (2S)-2-({5-[(1S)-1-[(5-chloro-2-methylpyridin-3-yl)amino]ethyl]thiophen-2-yl}formamido)-3-cyclopentyl-N-(5,6,7,8-tetrahydroquinolin-6-yl)propanamide] |
| 217 nM | Cc1ncc(Cl)cc1N[C@H](Cc1cnn(C)c1)c1ccc(C(=O)N[C@@H](CC2CCCC2)C(=O)NC2CC2)s1 [Compound 170, (2S)-2-({5-[(1R)-1-[(5-chloro-2-methylpyridin-3-yl)amino]-2-(1-methyl-1H-pyrazol-4-yl)ethyl]thiophen-2-yl}formamido)-3-cyclopentyl-N-cyclopropylpropanamide] |
| 10 nM | CC(Nc1cc(Cl)cnc1C(N)=O)c1ccc(C(=O)N[C@@H](CC2CCCC2)C(=O)NC23CC(C2)C3)s1 (stereo partly drawn) [Compound 172, 3-{[1-(5-{[(1S)-1-({bicyclo[1.1.1]pentan-1-yl}carbamoyl)-2-cyclopentylethyl]carbamoyl}thiophen-2-yl)ethyl]amino}-5-chloropyridine-2-carboxamide] |
| 8 nM | CC(Nc1cc(Cl)cnc1C(N)=O)c1ccc(C(=O)N[C@@H](CC2CCCC2)C(=O)Nc2cnn(C)c2)s1 (stereo partly drawn) [Compound 173, 5-chloro-3-{[1-(5-{[(1S)-2-cyclopentyl-1-[(1-methyl-1H-pyrazol-4-yl)carbamoyl]ethyl]carbamoyl}thiophen-2-yl)ethyl]amino}pyridine-2-carboxamide] |
| 37 nM | Cc1ncc(Cl)cc1N[C@@H](C)c1ccc(C(=O)N[C@H](C(=O)NC2CC2)C2CCCCC2)s1 [Compound 174, (2S)-2-({5-[(1S)-1-[(5-chloro-2-methylpyridin-3-yl)amino]ethyl]thiophen-2-yl}formamido)-2-cyclohexyl-N-cyclopropylacetamide] |
| 21 nM | COCC(Nc1cc(Cl)cnc1C)c1ccc(C(=O)N[C@@H](CC2CCCC2)C(=O)NC2CC2)s1 (stereo partly drawn) [Compound 176, (2S)-2-[(5-{1-[(5-chloro-2-methylpyridin-3-yl)amino]-2-methoxyethyl}thiophen-2-yl)formamido]-3-cyclopentyl-N-cyclopropylpropanamide] |
| 5 nM | Cc1ncc(Cl)cc1N[C@@H](C)c1ccc(C(=O)N[C@@H](CC2CCCC2)C(=O)Nc2ccc3ncc(F)cc3c2)s1 [Compound 178, (2S)-2-({5-[(1S)-1-[(5-chloro-2-methylpyridin-3-yl)amino]ethyl]thiophen-2-yl}formamido)-3-cyclopentyl-N-(3-fluoroquinolin-6-yl)propanamide] |
| 4 nM | Cc1ncc(Cl)cc1N[C@@H](C)c1ccc(C(=O)N[C@@H](CC2CC3CC3C2)C(=O)Nc2cnn(C)c2)s1 (stereo partly drawn) [Compound 179, (2S)-3-{bicyclo[3.1.0]hexan-3-yl}-2-({5-[(1S)-1-[(5-chloro-2-methylpyridin-3-yl)amino]ethyl]thiophen-2-yl}formamido)-N-(1-methyl-1H-pyrazol-4-yl)propanamide] |
| 4 nM | COc1cnc2ccc(NC(=O)[C@H](CC3CCCC3)NC(=O)c3ccc([C@H](C)Nc4cc(Cl)cnc4C)s3)cc2c1 [Compound 180, (2S)-2-({5-[(1S)-1-[(5-chloro-2-methylpyridin-3-yl)amino]ethyl]thiophen-2-yl}formamido)-3-cyclopentyl-N-(3-methoxyquinolin-6-yl)propanamide] |
| 131 nM | Cc1ncc(Cl)cc1N[C@@H](c1ccc(C(=O)N[C@@H](CC2CCCC2)C(=O)NC2CC2)s1)C(F)(F)F [Compound 184, (2S)-2-({5-[(1R)-1-[(5-chloro-2-methylpyridin-3-yl)amino]-2,2,2-trifluoroethyl]thiophen-2-yl}formamido)-3-cyclopentyl-N-cyclopropylpropanamide] |
| 61 nM | Cc1ncc(Cl)cc1N[C@H](c1ccc(C(=O)N[C@@H](CC2CCCC2)C(=O)NC2CC2)s1)C(F)(F)F [Compound 185, (2S)-2-({5-[(1S)-1-[(5-chloro-2-methylpyridin-3-yl)amino]-2,2,2-trifluoroethyl]thiophen-2-yl}formamido)-3-cyclopentyl-N-cyclopropylpropanamide] |
| 195 nM | Cc1ncc(Cl)cc1N[C@@H](c1ccc(C(=O)N[C@@H](CC2CCCC2)C(=O)NC23CC(C2)C3)s1)C(F)(F)F [Compound 186, (2S)-N-{bicyclo[1.1.1]pentan-1-yl}-2-({5-[(1R)-1-[(5-chloro-2-methylpyridin-3-yl)amino]-2,2,2-trifluoroethyl]thiophen-2-yl}formamido)-3-cyclopentylpropanamide] |
| 37 nM | Cc1ncc(Cl)cc1N[C@H](c1ccc(C(=O)N[C@@H](CC2CCCC2)C(=O)NC23CC(C2)C3)s1)C(F)(F)F [Compound 187, (2S)-N-{bicyclo[1.1.1]pentan-1-yl}-2-({5-[(1S)-1-[(5-chloro-2-methylpyridin-3-yl)amino]-2,2,2-trifluoroethyl]thiophen-2-yl}formamido)-3-cyclopentylpropanamide] |
| 11 nM | Cc1ncc(Cl)cc1NC(Cc1cnn(C)c1)c1ccc(C(=O)N[C@@H](CC2CCCC2)C(=O)NC2CC2)s1 (stereo partly drawn) [Compound 188, (2S)-2-[(5-{1-[(5-chloro-2-methylpyridin-3-yl)amino]-2-(1-methyl-1H-pyrazol-4-yl)ethyl}thiophen-2-yl)formamido]-3-cyclopentyl-N-cyclopropylpropanamide] |
| 10 nM | C[C@H](Nc1cc(Cl)cnc1C(F)(F)F)c1ccc(C(=O)N[C@@H](CC2CCCC2)C(=O)NC2CC2)s1 [Compound 189, (2S)-2-({5-[(1S)-1-{[5-chloro-2-(trifluoromethyl)pyridin-3-yl]amino}ethyl]thiophen-2-yl}formamido)-3-cyclopentyl-N-cyclopropylpropanamide] |
| 224 nM | C[C@@H](Nc1cc(Cl)cnc1C(F)(F)F)c1ccc(C(=O)N[C@@H](CC2CCCC2)C(=O)NC2CC2)s1 [Compound 190, (2S)-2-({5-[(1R)-1-{[5-chloro-2-(trifluoromethyl)pyridin-3-yl]amino}ethyl]thiophen-2-yl}formamido)-3-cyclopentyl-N-cyclopropylpropanamide] |
| 13 nM | Cc1ncc(Cl)cc1NC(Cn1cccn1)c1ccc(C(=O)N[C@@H](CC2CCCC2)C(=O)NC2CC2)s1 (stereo partly drawn) [Compound 191, (2S)-2-[(5-{1-[(5-chloro-2-methylpyridin-3-yl)amino]-2-(1H-pyrazol-1-yl)ethyl}thiophen-2-yl)formamido]-3-cyclopentyl-N-cyclopropylpropanamide] |
| 408 nM | CC(Nc1cc(Cl)cnc1C(C)(C)C#N)c1ccc(C(=O)N[C@@H](CC2CCCC2)C(=O)NC2CC2)s1 (stereo partly drawn) [Compound 192] |
| 316 nM | C[C@@H](Nc1cc(Cl)cnc1C(C)(C)O)c1ccc(C(=O)N[C@@H](CC2CCCC2)C(=O)NC2CC2)s1 [Compound 193, (2S)-2-({5-[(1R)-1-{[5-chloro-2-(2-hydroxypropan-2-yl)pyridin-3-yl]amino}ethyl]thiophen-2-yl}formamido)-3-cyclopentyl-N-cyclopropylpropanamide] |
| 6 nM | C[C@H](Nc1cc(Cl)cnc1C(C)(C)O)c1ccc(C(=O)N[C@@H](CC2CCCC2)C(=O)NC2CC2)s1 [Compound 194, (2S)-2-({5-[(1S)-1-{[5-chloro-2-(2-hydroxypropan-2-yl)pyridin-3-yl]amino}ethyl]thiophen-2-yl}formamido)-3-cyclopentyl-N-cyclopropylpropanamide] |
| 3 nM | Cc1ncc(Cl)cc1N[C@@H](C)c1ccc(C(=O)N[C@@H](CC2CCCC2)C(=O)Nc2ccc3cnccc3c2)s1 [Compound 195, (2S)-2-({5-[(1S)-1-[(5-chloro-2-methylpyridin-3-yl)amino]ethyl]thiophen-2-yl}formamido)-3-cyclopentyl-N-(isoquinolin-6-yl)propanamide] |
| 6 nM | CNC(=O)c1ncc(Cl)cc1N[C@@H](C)c1ccc(C(=O)N[C@@H](CC2CCCC2)C(=O)NC2CC2)s1 [Compound 196, 5-chloro-3-{[(1S)-1-(5-{[(1S)-2-cyclopentyl-1-(cyclopropylcarbamoyl)ethyl]carbamoyl}thiophen-2-yl)ethyl]amino}-N-methylpyridine-2-carboxamide] |

Reference: patent US20240116910A1, “Heterocycles as WIP1 Inhibitors” (PMV Pharmaceuticals, Inc., priority 2022, published 2024)
